Where two headings read alike, the source gives them in different places. Square brackets hold non-standard residues; d marks the D form. Peptide text beside a SMILES is read from it. Bip = N[C@@H](Cc1ccc(-c2ccccc2)cc1)C(=O)O
Test system: S. aureus (ATCC 33591) biofilm
Assay type: cell-based, Staphylococcus aureus
Settings: for Viable Biofilm Cells (%): 4 h treatment 37 °C, 8 h recovery, colony count
Description: Biofilm formation relied on a published protocol employing the Calgary biofilm device (Innovotech, Edmonton, AB, Canada). Briefly, S. aureus (ATCC 33591) bacterial strain was incubated in MHB and cultures were diluted in the same medium to achieve a concentration of 10^5 CFU/mL. Next, diluted bacterial suspension (150 µL) was added to the sterile 96 peg-lids on which biofilm cells can build up. Negative control lanes were prepared by adding 150 µL MHB to six wells. And then the pegs were incubated for 14–16 h under rotation of 125 rpm at 37 °C to allow biofilm formation on the purpose designed pegs. The pegs were rinsed twice with phosphate-buffered saline (PBS) to remove planktonic cells as a washing step. Each peg-lid was then transferred into a “challenge 96-well microtiter plate” containing 200 μL of different peptides concentrations and the peg-lids containing the biofilms were incubated for four hours at 37 °C under rotation at 125 rpm. After biofilm treatment with the challenge plate, the biofilms were re-washed twice with PBS then transferred into the recovery plate for eight hours. The minimum biofilm eradication concentration MBEC value is defined as the minimum concentration needed to inhibit the re-growth of biofilms after four hours of peptide treatment, washing twice with PBS and incubating in pre-sterilized MHB (recovery plate) for 8 h, using an ELISA plate reader λ = 600 nm. Additionally, the biofilms were assessed for their minimum bactericidal concentration (MBECb), this assay was conducted similar to MBC assay (see Section 2.4.1). MBECb parameter is defined as the lowest concentration able to eradicate 3log^10 of the viable microorganisms in a biofilm (99.9% killing) after 8 h of incubation in recovery plates using the colony count method.

N=C(N)NCCC[C@H](NC(=O)[C@H](Cc1ccc(-c2ccccc2)cc1)NC(=O)[C@H](CCCNC(=N)N)NC(=O)[C@H](Cc1ccc(-c2ccccc2)cc1)NC(=O)[C@@H](N)CCCNC(=N)N)C(=O)O [UP-5] (H-R[Bip]R[Bip]R-OH) was tested. Which “MBEC value (minimum biofilm eradication concentration)” value (ATCC 33591, 4 h) did it give?
Its value is 20 µM.

And the “MBCb (MBECb), minimum bactericidal concentration against biofilm cells” value (ATCC 33591, 8 h)?
The value was 20 µM.

And the “Viable Biofilm Cells (%)” value (peptide concentration 10 μM)?
The value was 0.35%.

And the “Viable Biofilm Cells (%)” value (peptide concentration 20 μM)?
Its value is 0.108%.

And the “Viable Biofilm Cells (%)” value (peptide concentration 30 μM)?
The value was 0.054%.

What about the “Viable Biofilm Cells (%)” value (peptide concentration 40 μM) of the same compound?
The value was 0%.

And the “Viable Biofilm Cells (%)” value (peptide concentration 60 μM)?
Its value is 0%.

And the “Viable Biofilm Cells (%)” value (peptide concentration 80 μM)?
The value was 0%.

What about the “Viable Biofilm Cells (%)” value (peptide concentration 100 μM, compared to untreated biofilm) of the same compound?
Its value is 0%.

— article PMC5874699, “Antimicrobial and Antibiofilm Activity of UP-5, an Ultrashort Antimicrobial Peptide Designed Using Only Arginine and Biphenylalanine” (Pharmaceuticals, 2018)
